Results reported in ChEMBL document CHEMBL3297661, “1-Substituted-5-[(3,5-dinitrobenzyl)sulfanyl]-1H-tetrazoles and their isosteric analogs: A new class of selective antitubercular agents active against drug-susceptible and multidrug-resistant mycobacteria” (Eur J Med Chem, 2014).
≈ marks a conversion by molar mass, not a printed value.

What was measured:
Pseudomonas aeruginosa [1] = assay: Antibacterial activity against Pseudomonas aeruginosa ATCC 9027 after 48 hrs by broth microdilution method; type: functional; details: ATCC 9027, 48 h
Candida albicans [2] = assay: Antifungal activity against Candida albicans ATCC 44859 after 24 hrs by broth microdilution method; type: functional; details: ATCC 44859, 24 h
Candida albicans [3] = assay: Antifungal activity against Candida albicans ATCC 44859 after 48 hrs by broth microdilution method; type: functional; details: ATCC 44859, 48 h
Candida tropicalis [4] = assay: Antifungal activity against Candida tropicalis 156 after 24 hrs by broth microdilution method; type: functional; details: Candida tropicalis, 156, 24 h
Candida tropicalis [5] = assay: Antifungal activity against Candida tropicalis 156 after 48 hrs by broth microdilution method; type: functional; details: Candida tropicalis, 156, 48 h
Pichia kudriavzevii [6] = assay: Antifungal activity against Candida krusei E28 after 24 hrs by broth microdilution method; type: functional; details: E28, 24 h
Pichia kudriavzevii [7] = assay: Antifungal activity against Candida krusei E28 after 48 hrs by broth microdilution method; type: functional; details: E28, 48 h
Nakaseomyces glabratus [8] = assay: Antifungal activity against Candida glabrata 20/I after 24 hrs by broth microdilution method; type: functional
Nakaseomyces glabratus [9] = assay: Antifungal activity against Candida glabrata 20/I after 48 hrs by broth microdilution method; type: functional
Trichosporon asahii [10] = assay: Antifungal activity against Trichosporon asahii 1188 after 24 hrs by broth microdilution method; type: functional; details: Trichosporon asahii, 1188, 24 h
Trichosporon asahii [11] = assay: Antifungal activity against Trichosporon asahii 1188 after 48 hrs by broth microdilution method; type: functional; details: Trichosporon asahii, 1188, 48 h
Aspergillus fumigatus [12] = assay: Antifungal activity against Aspergillus fumigatus 231 after 24 hrs by broth microdilution method; type: functional, organism-based; details: Aspergillus fumigatus, 231, 24 h
Aspergillus fumigatus [13] = assay: Antifungal activity against Aspergillus fumigatus 231 after 48 hrs by broth microdilution method; type: functional, organism-based; details: Aspergillus fumigatus, 231, 48 h
Lichtheimia corymbifera [14] = assay: Antifungal activity against Absidia corymbifera 272 after 24 hrs by broth microdilution method; type: functional, organism-based; details: Lichtheimia corymbifera, 272, 24 h
Lichtheimia corymbifera [15] = assay: Antifungal activity against Absidia corymbifera 272 after 48 hrs by broth microdilution method; type: functional, organism-based; details: Lichtheimia corymbifera, 272, 48 h
[16] = tested on: Trichophyton mentagrophytes; assay: Antifungal activity against Trichophyton mentagrophytes 445 after 72 hrs by broth microdilution method; type: functional, organism-based; details: Trichophyton mentagrophytes, 445, 72 h
[17] = tested on: Trichophyton mentagrophytes; assay: Antifungal activity against Trichophyton mentagrophytes 445 after 120 hrs by broth microdilution method; type: functional, organism-based; details: Trichophyton mentagrophytes, 445, 120 h
[18] = Cytotoxicity against human HeLa cells assessed as cell viability at 30 uM after 48 hrs by MTT assay; type: cell-based; details: read-out: Activity
[19] = Cytotoxicity against human HuH7 cells assessed as cell viability at 30 uM after 48 hrs by MTT assay; type: cell-based, Huh-7; details: read-out: Activity
[20] = Cytotoxicity against human HepG2 cells assessed as cell viability at 30 uM after 48 hrs by MTT assay; type: cell-based; details: read-out: Activity
[21] = Cytotoxicity against MDCK2 cells assessed as cell viability at 30 uM after 48 hrs by MTT assay; type: cell-based, Canis lupus familiaris, MDCK-II; details: dog, read-out: Activity
HeLa = assay: Cytotoxicity against human HeLa cells assessed as reduction in cell viability after 48 hrs by MTT assay; type: cell-based
[22] = Cytotoxicity against human HuH7 cells assessed as reduction in cell viability after 48 hrs by MTT assay; type: cell-based; details: Huh-7, 48 h
[23] = Cytotoxicity against MDCK2 cells assessed as reduction in cell viability after 48 hrs by MTT assay; type: cell-based; details: Canis lupus familiaris, MDCK-II
HepG2 = assay: Cytotoxicity against human HepG2 cells assessed as reduction in cell viability after 48 hrs by MTT assay; type: cell-based; details: HepG2, 48 h
[24] = tested on: Mycobacterium tuberculosis; assay: Antimycobacterial activity against Mycobacterium tuberculosis CNCTC My 331/88 after 14 days by micromethod; type: functional; details: CNCTC My 331/88, 336 h
[25] = tested on: Mycobacterium tuberculosis; assay: Antimycobacterial activity against Mycobacterium tuberculosis CNCTC My 331/88 after 21 days by micromethod; type: functional; details: CNCTC My 331/88, 504 h
Mycobacterium avium [26] = assay: Antimycobacterial activity against Mycobacterium avium CNCTC My 330/88 after 14 days by micromethod; type: functional; details: CNCTC My 330/88, 336 h
Mycobacterium avium [27] = assay: Antimycobacterial activity against Mycobacterium avium CNCTC My 330/88 after 21 days by micromethod; type: functional; details: CNCTC My 330/88, 504 h
Mycobacterium kansasii [28] = assay: Antimycobacterial activity against Mycobacterium kansasii CNCTC My 235/80 after 7 days by micromethod; type: functional; details: CNCTC My 235/80, 168 h
Mycobacterium kansasii [29] = assay: Antimycobacterial activity against Mycobacterium kansasii CNCTC My 235/80 after 14 days by micromethod; type: functional; details: CNCTC My 235/80, 336 h
Mycobacterium kansasii [30] = assay: Antimycobacterial activity against Mycobacterium kansasii CNCTC My 235/80 after 21 days by micromethod; type: functional; details: CNCTC My 235/80, 504 h
Mycobacterium kansasii [31] = assay: Antimycobacterial activity against Mycobacterium kansasii 6509/96 after 7 days by micromethod; type: functional; details: 6509/96, 168 h
Mycobacterium kansasii [32] = assay: Antimycobacterial activity against Mycobacterium kansasii 6509/96 after 14 days by micromethod; type: functional; details: 6509/96, 336 h
Mycobacterium kansasii [33] = assay: Antimycobacterial activity against Mycobacterium kansasii 6509/96 after 21 days by micromethod; type: functional; details: 6509/96, 504 h
Staphylococcus aureus [34] = assay: Antibacterial activity against Staphylococcus aureus ATCC 6538 after 24 hrs by broth microdilution method; type: functional; details: ATCC 6538, 24 h
Staphylococcus aureus [35] = assay: Antibacterial activity against Staphylococcus aureus ATCC 6538 after 48 hrs by broth microdilution method; type: functional; details: ATCC 6538, 48 h
Staphylococcus aureus [36] = assay: Antibacterial activity against methicillin-resistant Staphylococcus aureus H 5996/08 after 24 hrs by broth microdilution method; type: functional; details: H 5996/08, 24 h
Staphylococcus aureus [37] = assay: Antibacterial activity against methicillin-resistant Staphylococcus aureus H 5996/08 after 48 hrs by broth microdilution method; type: functional; details: H 5996/08, 48 h
[38] = tested on: Staphylococcus epidermidis; assay: Antibacterial activity against Staphylococcus epidermidis H 6966/08 after 24 hrs by broth microdilution method; type: functional; details: H 6966/08, 24 h
[39] = tested on: Staphylococcus epidermidis; assay: Antibacterial activity against Staphylococcus epidermidis H 6966/08 after 48 hrs by broth microdilution method; type: functional; details: H 6966/08, 48 h
Enterococcus faecalis [40] = assay: Antibacterial activity against Enterococcus faecalis J 14365/08 after 24 hrs by broth microdilution method; type: functional; details: J 14365/08, 24 h
Enterococcus faecalis [41] = assay: Antibacterial activity against Enterococcus faecalis J 14365/08 after 48 hrs by broth microdilution method; type: functional; details: J 14365/08, 48 h
Escherichia coli [42] = assay: Antibacterial activity against Escherichia coli ATCC 8739 after 24 hrs by broth microdilution method; type: functional; details: ATCC 8739, ATCC 8739, 24 h
Escherichia coli [43] = assay: Antibacterial activity against Escherichia coli ATCC 8739 after 48 hrs by broth microdilution method; type: functional; details: ATCC 8739, ATCC 8739, 48 h
Klebsiella pneumoniae [44] = assay: Antibacterial activity against Klebsiella pneumoniae D 11750/08 after 24 hrs by broth microdilution method; type: functional; details: D 11750/08, 24 h
Klebsiella pneumoniae [45] = assay: Antibacterial activity against Klebsiella pneumoniae D 11750/08 after 48 hrs by broth microdilution method; type: functional; details: D 11750/08, 48 h
Klebsiella pneumoniae [46] = assay: Antibacterial activity against extended spectrum beta-lactamase producing Klebsiella pneumoniae J 14368/08 after 24 hrs by broth microdilution method; type: functional; details: J 14368/08, 24 h
Klebsiella pneumoniae [47] = assay: Antibacterial activity against extended spectrum beta-lactamase producing Klebsiella pneumoniae J 14368/08 after 48 hrs by broth microdilution method; type: functional; details: J 14368/08, 48 h
Pseudomonas aeruginosa [48] = assay: Antibacterial activity against Pseudomonas aeruginosa ATCC 9027 after 24 hrs by broth microdilution method; type: functional; details: ATCC 9027, 24 h

Compound: O=[N+]([O-])c1cc(CSc2nnnn2C2CCCCC2)cc([N+](=O)[O-])c1
- IC95 (Pseudomonas aeruginosa [1]): > 500 µM
- IC80 (Candida albicans [2]): > 500 µM
- IC80 (Candida albicans [3]): > 500 µM
- IC80 (Candida tropicalis [4]): > 500 µM
- IC80 (Candida tropicalis [5]): > 500 µM
- IC80 (Pichia kudriavzevii [6]): > 500 µM
- IC80 (Pichia kudriavzevii [7]): > 500 µM
- IC80 (Nakaseomyces glabratus [8]): > 500 µM
- IC80 (Nakaseomyces glabratus [9]): > 500 µM
- IC80 (Trichosporon asahii [10]): > 500 µM
- IC80 (Trichosporon asahii [11]): > 500 µM
- IC50 (Aspergillus fumigatus [12]): > 500 µM
- IC50 (Aspergillus fumigatus [13]): > 500 µM
- IC50 (Lichtheimia corymbifera [14]): > 500 µM
- IC50 (Lichtheimia corymbifera [15]): > 500 µM
- IC50 [16]: > 500 µM
- IC50 [17]: > 500 µM
- viability at 48 h, 30 µM [18]: 84%
- viability at 48 h, 30 µM [19]: 128%
- viability at 48 h, 30 µM [20]: 88%
- viability at 48 h, 30 µM [21]: 98%
- IC50 (HeLa): > 30 µM
- IC50 [22]: > 30 µM
- IC50 [23]: > 30 µM
- IC50 (HepG2): > 30 µM
- MIC [24]: 1 µM (≈ 0.364 µg/mL)
- MIC [25]: 1 µM (≈ 0.364 µg/mL)
- MIC (Mycobacterium avium [26]): 16 µM (≈ 5.83 µg/mL)
- MIC (Mycobacterium avium [27]): 32 µM (≈ 11.7 µg/mL)
- MIC (Mycobacterium kansasii [28]): 4 µM (≈ 1.46 µg/mL)
- MIC (Mycobacterium kansasii [29]): 4 µM (≈ 1.46 µg/mL)
- MIC (Mycobacterium kansasii [30]): 4 µM (≈ 1.46 µg/mL)
- MIC (Mycobacterium kansasii [31]): 2 µM (≈ 0.729 µg/mL)
- MIC (Mycobacterium kansasii [32]): 2 µM (≈ 0.729 µg/mL)
- MIC (Mycobacterium kansasii [33]): 4 µM (≈ 1.46 µg/mL)
- IC95 (Staphylococcus aureus [34]): > 500 µM
- IC95 (Staphylococcus aureus [35]): > 500 µM
- IC95 (Staphylococcus aureus [36]): > 500 µM
- IC95 (Staphylococcus aureus [37]): > 500 µM
- IC95 [38]: > 500 µM
- IC95 [39]: > 500 µM
- IC95 (Enterococcus faecalis [40]): > 500 µM
- IC95 (Enterococcus faecalis [41]): > 500 µM
- IC95 (Escherichia coli [42]): > 500 µM
- IC95 (Escherichia coli [43]): > 500 µM
- IC95 (Klebsiella pneumoniae [44]): > 500 µM
- IC95 (Klebsiella pneumoniae [45]): > 500 µM
- IC95 (Klebsiella pneumoniae [46]): > 500 µM
- IC95 (Klebsiella pneumoniae [47]): > 500 µM
- IC95 (Pseudomonas aeruginosa [48]): > 500 µM

Compound: CN[C@H](CC(C)C)C(=O)N[C@H]1C(=O)N[C@@H](CC(N)=O)C(=O)N[C@H]2C(=O)N[C@H]3C(=O)N[C@H](C(=O)N[C@H](C(=O)O)c4cc(O)cc(O)c4-c4cc3ccc4O)[C@H](O)c3ccc(c(Cl)c3)Oc3cc2cc(c3O[C@@H]2O[C@H](CO)[C@@H](O)[C@H](O)[C@H]2O[C@H]2C[C@](C)(N)[C@H](O)[C@H](C)O2)Oc2ccc(cc2Cl)[C@H]1O [VANCOMYCIN]
- IC95 (Staphylococcus aureus [34]): 0.35 µM
- IC95 (Staphylococcus aureus [36]): 0.35 µM
- IC95 [38]: 0.35 µM
- IC95 (Enterococcus faecalis [40]): 0.7 µM
